Several values for one entry are separate records, joined by “and”; a condition that tells them apart may be missing. Identical values can stand only once.
Legend:
Type in all cases: cell-based, human
[1] = system: non-cancer PNT2, RWPE-1, HEK293T, MRC-9 cells vs cancer PC3, 22Rv1, DU145, VCaP, LNCaP cells; assay: Selectivity index from MTT IC50 values; conditions: [mean IC50 in non-cancer cells] / [mean IC50 in cancer cells]; Doce IC50 in PNT2 and MRC-9 assumed 500 nM
PC3-DR cells [2] = assay: Drug combination MTT assay, SynergyFinder ZIP analysis; conditions: 48 h
Description: (§1) Fig. 5 Effects of CuC1 in combination with taxanes and platinum agents. PC3-DR and 22Rv1 cells were co-treated with cisplatin (Cis), carboplatin (Carbo), docetaxel (Doce), or cabazitaxel (Caba) in combination with CuC1 at the indicated concentrations for 48 h. Cellular viability was evaluated using the MTT assay (number of biological replicates n = 3.) and is represented in the Supplementary Table S2. The cytotoxic effects were further analyzed, and 3D heat maps were constructed using SynergyFinder 3.0 software. The drug effects in combination (synergistic, additive, or antagonistic) were analyzed and visualized using the ZIP algorithm and are indicated by δ-score. δ > 10: Synergistic interactions (dark red area); […]: additive effect; δ < − 10: Antagonistic interactions (dark green area). A ZIP synergy score represents a mean δ overall the concentration range used.
(§2) The effect of combinational treatment with established chemotherapies was evaluated as previously reported^54. In brief, cells were exposed to individual drugs of their combinations for 48 h, and the viability was measured by MTT assay and was then analyzed using SynergyFinder 3.0 software (https://synergyfinder.fimm.fi) and the ZIP score algorithm. Statistical analysis was conducted automatically by the software using its inbuilt algorythms based on the input data type and size.

22Rv1 cells [3] = assay: as above; conditions: 22Rv1, 48 h
Description: as §1, §2

PC3-DR cells [4] = assay: MTT cytotoxicity assay; conditions: 48 h, mean ± SD
Source text: (§3) The cell lines were purchased from ATCC (Manassas, VA, USA) or ECACC (Salisbury, UK). The following cell lines were used: Human prostate cancer cells LNCaP (ATCC; RRID:CVCL_0395), VCaP (ECACC; RRID:CVCL_2235), 22Rv1 (ATCC; RRID:CVCL_1045), PC3 (ATCC; RRID:CVCL_0035), and DU145 (ATCC; RRID:CVCL_0105); human prostate non-cancer cells PNT2 (ATCC; RRID:CVCL_2164) and RWPE-01 (ATCC; RRID:CVCL_3791). Human non-cancer embryonic kidney cells HEK293T (ECACC; RRID:CVCL_0063) and human fibroblast cells MRC-9 (ECACC; RRID:CVCL_2629). The docetaxel-resistant cells PC3-DR were generated by long-term treatment of human prostate cancer PC3 cells with sublethal concentrations of docetaxel as previously described[32] and were provided by Prof. Z. Culig (Innsbruck Medical University, Austria). All cell lines were recently authenticated by a commercial service (Multiplexion GmbH, Heidelberg, Germany) and were cultured as previously described[58],[59]. Cells were kept in culture for a maximum of three months and were routinely examined for bacterial, fungal, and mycoplasma infections.

LNCaP cells = assay: MTT cytotoxicity assay; conditions: 48 h, mean ± SD
Source text: as §3

22Rv1 cells [5] = assay: MTT cytotoxicity assay; conditions: 22Rv1, 48 h, mean ± SD
Source text: as §3

MRC-9 cells = assay: MTT cytotoxicity assay; conditions: MRC-9, 48 h, mean ± SD
Source text: as §3

HEK293T cells = assay: MTT cytotoxicity assay; conditions: 48 h, mean ± SD
Source text: as §3

VCaP cells = assay: MTT cytotoxicity assay; conditions: 48 h, mean ± SD
Source text: as §3

DU145 cells = assay: MTT cytotoxicity assay; conditions: DU145, 48 h, mean ± SD
Source text: as §3

RWPE-1 cells = assay: MTT cytotoxicity assay; conditions: RWPE-1, 48 h, mean ± SD
Source text: as §3

PC3 cells = assay: MTT cytotoxicity assay; conditions: PC3, 48 h, mean ± SD
Source text: as §3

PNT2 cells = assay: MTT cytotoxicity assay; conditions: PNT2, 48 h, mean ± SD
Source text: as §3

In the case of `N.N.[Cl][Pt][Cl]` [Cis, cisplatin], the “Selectivity index (SI)” value [1] is reported as 0.88, the “Response (% of effect)” value (PC3-DR cells [2]; Cis 1.25 μM alone) is reported as 12.8% and 15.79% and the “Response (% of effect)” value (PC3-DR cells [2]; Cis 2.5 μM alone) is reported as 18.7% and 21.63%. The “Response (% of effect)” value (PC3-DR cells [2]; Cis 5 μM alone) was 29.8412% and 29.49%, the “Response (% of effect)” value (PC3-DR cells [2]; Cis 10 μM alone) was 50.19% and 51.55% and the “Response (% of effect)” value (22Rv1 cells [3]; Cis 2.5 μM alone) was 17.58% and 11.05%. The “Response (% of effect)” value (22Rv1 cells [3]; Cis 5 μM alone) was 26.89% and 27.91%, the “Response (% of effect)” value (22Rv1 cells [3]; Cis 10 μM alone) was 40.95% and 37.6% and the IC50 (PC3-DR cells [4]) was 6.89 ± 2.29 µM. For the same molecule, the IC50 (LNCaP cells) was 2.75 ± 0.39 µM, the IC50 (22Rv1 cells [5]) was 0.993 ± 0.2 µM and the IC50 (MRC-9 cells) was 6.75 ± 2.15 µM. It also gave an IC50 (HEK293T cells) of 6.44 ± 0.65 µM, an IC50 (VCaP cells) of 5.02 ± 2.73 µM and an IC50 (DU145 cells) of 1.32 ± 0.31 µM. It also gave an IC50 (RWPE-1 cells) of 9.02 ± 1.52 µM, an IC50 (PC3 cells) of 34.6 ± 6.62 µM and an IC50 (PNT2 cells) of 9.41 ± 1.82 µM.

`N.N.O=C([O-])C1(C(=O)[O-])CCC1.[Pt+2]` [Carbo, carboplatin] was tested, and the “Response (% of effect)” value (PC3-DR cells [2]; Carbo 6.25 μM alone) was 0.01% and 9.352%, the “Response (% of effect)” value (PC3-DR cells [2]; Carbo 12.5 μM alone) was 6.12% and 8.386% and the “Response (% of effect)” value (22Rv1 cells [3]; Carbo 12.5 μM alone) was 0.01% and 4.629%. The “Response (% of effect)” value (22Rv1 cells [3]; Carbo 25 μM alone) was 11.3613% and 13.96%, the “Response (% of effect)” value (22Rv1 cells [3]; Carbo 50 μM alone) was 22.27% and 31.0235% and the “Response (% of effect)” value (22Rv1 cells [3]; Carbo 100 μM alone) was 32.94% and 38.66%.

With `CO[C@H]1C(=O)[C@]2(C)[C@@H](OC)C[C@H]3OC[C@@]3(OC(C)=O)[C@H]2[C@H](OC(=O)c2ccccc2)[C@]2(O)C[C@H](OC(=O)[C@H](O)[C@@H](NC(=O)OC(C)(C)C)c3ccccc3)C(C)=C1C2(C)C` [Caba, cabazitaxel] the “Response (% of effect)” value (PC3-DR cells [2]; Caba 12.5 nM alone) was 26.4286% and 23.41%, the “Response (% of effect)” value (PC3-DR cells [2]; Caba 25 nM alone) was 28.07% and 33.73% and the “Response (% of effect)” value (PC3-DR cells [2]; Caba 50 nM alone) was 43.53% and 46.12%. For the same molecule, the “Response (% of effect)” value (PC3-DR cells [2]; Caba 100 nM alone) was 53.45% and 58.01%, the “Response (% of effect)” value (22Rv1 cells [3]; Caba 0.25 nM alone) was 3.714% and the “Response (% of effect)” value (22Rv1 cells [3]; Caba 0.5 nM alone) was 20.36% and 24.57%. For the same molecule, the “Response (% of effect)” value (22Rv1 cells [3]; Caba 1 nM alone) was 27.6928% and 30.03% and the “Response (% of effect)” value (22Rv1 cells [3]; Caba 2 nM alone) was 32.86% and 33.2%.
